The test system of data set [1] is MIA PaCa-2. In words: Growth inhibition of human MIAPaCa2 cells assessed as decrease in cell number at 1 uM incubated for 96 hrs by MTS assay relative to control. The format is functional. (Tetrazolium dyes change colour on reduction, which living cells bring about.)
Data set [2] concerns UMSCC1. In words: Growth inhibition of human UM-SCC-1 cells assessed as decrease in cell number at 1 uM by MTS assay relative to control. Type of data set: functional, cell-based.
Data set [3] relates to UMSCC1. In words: Growth inhibition of human UM-SCC-1 cells assessed as decrease in cell number at 0.1 uM incubated for 72 hrs in presence of 1 uM OGF by MTT assay relative to control. Type of data set: functional.
In data set [4] the test system is UMSCC1. The experiment in a line: Growth inhibition of human UM-SCC-1 cells assessed as decrease in cell number at 0.1 uM incubated for 96 hrs in presence of 1 uM OGF by MTT assay relative to control. The format is functional.
Data set [5] relates to UMSCC1. In words: Growth inhibition of human UM-SCC-1 cells assessed as decrease in cell number at 0.01 uM incubated for 72 hrs in presence of 1 uM OGF by MTT assay relative to control. Type of data set: functional.
Data set [6] concerns UMSCC1. The experiment in a line: Growth inhibition of human UM-SCC-1 cells assessed as decrease in cell number at 0.01 uM incubated for 96 hrs in presence of 1 uM OGF by MTT assay relative to control. The format is functional.
The test system of data set [7] is UMSCC1. In words: Antitumor activity against human UM-SCC-1 cells xenografted in nu/nu mouse assessed as mouse mortality at 8 mg/kg dosed every other day measured on day 19 relative to control. The format is functional, organism-based. (In general: Xenograft models place foreign cells or tissue in a host animal.)
Data set [8] concerns UMSCC1. The experiment in a line: Antitumor activity against human UM-SCC-1 cells xenografted in nu/nu mouse assessed as mouse mortality at 8 mg/kg dosed every other day measured on day 40 co-treated with 10 mg/kg/day OGF relative to control. Type of data set: functional, organism-based.
Data set [9] can be described thus: Toxicity in mouse xenografted with human UM-SCC-1 cells assessed as distension of abdomens with associated megacolon at 8 mg/kg dosed every other day by histological analysis. As to conditions: in vivo. The format is organism-based.
A short description of data set [10]: Toxicity in mouse xenografted with human UM-SCC-1 cells assessed as effect on large intestine/cecum/small bowel at 8 mg/kg dosed every other day by histological analysis. Type of data set: organism-based. The conditions noted are these: in vivo.
Data set [11] is described as follows: Toxicity in mouse xenografted with human UM-SCC-1 cells assessed as induction of stool hardening at 8 mg/kg dosed every other day by histological analysis. The format is organism-based. The conditions noted are these: in vivo.
In data set [12] the test system is UMSCC1. In words: Antitumor activity against human UM-SCC-1 cells xenografted in nu/nu mouse assessed as time duration for delay in visible tumor development at 8 mg/kg dosed every other day and co-treated with 10 mg/kg/day OGF relative to control. The format is functional.
Data set [13] concerns UMSCC1. In words: Antitumor activity against human UM-SCC-1 cells xenografted in nu/nu mouse assessed as latency time for measurable (62.5 mm3) tumors at 8 mg/kg dosed every other day and co-treated with 10 mg/kg/day OGF (Rvb <=2 weeks). Type of data set: functional.
Data set [14] deals with UMSCC1. The experiment in a line: Antitumor activity against human UM-SCC-1 cells xenografted in nu/nu mouse assessed as latency time for measurable (62.5 mm3) tumors at 8 mg/kg dosed every other day (Rvb <=2 weeks). The format is functional.
The subject of data set [15] is UMSCC1. In words: Antitumor activity against human UM-SCC-1 cells xenografted in nu/nu mouse assessed as reduction in tumor at 8 mg/kg dosed every other day and co-treated with 10 mg/kg/day OGF measured on 4th day of measurable tumors relative to control. The arrangement: scale not given: the % may be the effect or the level left. The format is functional.
For data set [16], the system named is UMSCC1. In words: Antitumor activity against human UM-SCC-1 cells xenografted in nu/nu mouse assessed as reduction in tumor measured on 6th day of measurable tumors at 8 mg/kg dosed every other day relative to control. The format is functional. The arrangement: scale not given: the % may be the effect or the level left.
Data set [17] concerns UMSCC1. The experiment in a line: Antitumor activity against human UM-SCC-1 cells xenografted in nu/nu mouse assessed as reduction in tumor at 8 mg/kg dosed every other day and co-treated with 10 mg/kg/day OGF measured on 6th day of measurable tumors relative to control. Type of data set: functional. The arrangement: scale not given: the % may be the effect or the level left.

The test system of data set [18] is UMSCC1. The experiment in a line: Antitumor activity against human UM-SCC-1 cells xenografted in nu/nu mouse assessed as reduction in tumor at 8 mg/kg dosed every other day and co-treated with at 10 mg/kg/day OGF measured on 16th to 20th day of measurable tumors relative to control. The format is functional, organism-based.
Data set [19] relates to UMSCC1. In words: Antitumor activity against human UM-SCC-1 cells xenografted in nu/nu mouse assessed as reduction in tumor at 8 mg/kg dosed every other day and co-treated with 10 mg/kg/day OGF measured on 22nd to 36th day of measurable tumors relative to control. Type of data set: functional, organism-based.
Data set [20] concerns UMSCC1. In words: Antitumor activity against human UM-SCC-1 cells xenografted in nu/nu mouse assessed as reduction in tumor measured on 22nd to 36th day of measurable tumors at 8 mg/kg dosed every other day relative to control. The format is functional, organism-based.
Data set [21] has as its system UMSCC1. The experiment in a line: Growth inhibition of human UM-SCC-1 cells assessed as decrease in cell number at 0.01 uM in presence of 1 uM OGF incubated for 48 hrs by MTS assay relative to control. Type of data set: functional.
In data set [22] the test system is UMSCC1. The experiment in a line: Growth inhibition of human UM-SCC-1 cells assessed as decrease in cell number at 0.01 uM in presence of 1 uM OGF incubated for 72 hrs by MTS assay relative to control. Type of data set: functional.
In data set [23] the test system is UMSCC1. In words: Growth inhibition of human UM-SCC-1 cells assessed as decrease in cell number at 0.01 uM in presence of 1 uM OGF incubated for 96 hrs by MTS assay relative to control. The format is functional.
In data set [24] the test system is UMSCC1. The experiment in a line: Growth inhibition of human UM-SCC-1 cells assessed as decrease in cell number at 0.01 uM in presence of 1 uM OGF and 1 uM opioid antagonist naloxone incubated for 24 to 96 hrs by MTS assay relative to control. The format is functional.
For data set [25], the system named is UMSCC1. The experiment in a line: Growth inhibition of human UM-SCC-1 cells assessed as decrease in cell number at 0.01 uM in presence of 1 uM OGF incubated for 48 hrs followed by compound wash out by 50% replacement of media and measured after 48 hrs by MTS assay relative to control. Type of data set: functional, cell-based.
In data set [26] the test system is UMSCC1. In words: Growth inhibition of human UM-SCC-1 cells assessed as decrease in cell number at 0.01 uM incubated for 48 hrs followed by compound wash out by 50% replacement of media and measured after 48 hrs by MTS assay relative to control. Type of data set: functional, cell-based.
The subject of data set [27] is UMSCC1. In words: Induction of apoptosis in human UM-SCC-1 cells assessed as increase in caspse-3 levels at 0.01 uM incubated for 1 day by flow cytometry. The format is functional, cell-based. Background: A flow cytometer gives signals particle by particle.
The test system of data set [28] is UMSCC1. The experiment in a line: Induction of apoptosis in human UM-SCC-1 cells assessed as increase in caspse-3 levels at 0.01 uM in presence of 1 uM OGF incubated for 1 to 3 days by flow cytometry. The format is functional.
For data set [29], the system named is UMSCC1. In words: Induction of apoptosis in human UM-SCC-1 cells assessed as increase in caspse-3 levels at 0.01 uM incubated for 6 days by flow cytometry. Type of data set: functional.
In data set [30] the test system is UMSCC1. The experiment in a line: Induction of apoptosis in human UM-SCC-1 cells assessed as increase in caspse-3 levels at 0.01 uM in presence of 1 uM OGF incubated for 6 days by flow cytometry. Type of data set: functional.
Data set [31] has as its system UMSCC1. In words: Inhibition of DNA synthesis in human UM-SCC-1 cells assessed as reduction in BrdU incorporation at 0.01 uM in presence of 1 uM OGF incubated for 72 hrs by fluorescence microscopy. The format is functional.
Data set [32] has as its system CAL-27. In words: Growth inhibition of human CAL27 cells assessed as decrease in cell number at 0.0001 uM with drug and media changed daily incubated for 48 hrs by MTS assay relative to control. Type of data set: functional. The conditions noted are these: CAL-27, 48 h, read-out: GI.
The subject of data set [33] is CAL-27. In words: Growth inhibition of human CAL27 cells assessed as decrease in cell number at 0.0001 uM with drug and media changed daily in presence of 1 uM OGF incubated for 48 hrs by MTS assay relative to control. Type of data set: functional.

Calls of active or inactive are those of the source. The calls are words filed in the database; no cut-off is given here.

As for `CC(C)C[C@@H](NC(=O)[C@H](Cc1ccccc1)NC(=O)CNC(=O)[C@@H](C)NC(=O)[C@@H](N)Cc1ccc(O)cc1)C(=O)O`, the “growth inhibition (GI)” value in [1] and in data set [2] was “inactive” each time.

In the case of `CC(=O)O[C@H]1C(=O)[C@@]2(C)[C@H]([C@H](OC(=O)c3ccccc3)[C@]3(O)C[C@H](OC(=O)[C@H](O)[C@@H](NC(=O)c4ccccc4)c4ccccc4)C(C)=C1C3(C)C)[C@]1(OC(C)=O)CO[C@@H]1C[C@@H]2O` [PACLITAXEL], the “growth inhibition (GI)” value in data set [3] stood at 68.4%; in data set [4] it was 78.4%; in data set [5] it was 30.6%; in data set [6] it was 36.3%; in [21], 48%; in [22], 63%. Moreover, the figures for the “growth inhibition (GI)” value in data set [23], in data set [24] and in data set [33] were 69%, 8.8 - 26% and 61%, respectively. The result in data set [7], in data set [20] and in data set [27] was inactive. Further, the outcome in [8], in data set [18] and in [19] was Active. Moreover, the Activity entry in [9] was “Toxic”; in data set [10] it was “Toxic”; in [11], “Toxic”; in data set [15], 29%; in [16], 29 - 33%; in data set [17], 29 - 33%. Besides, the Time is 4 days in data set [12], 17 days in data set [13] and “<=12 day” in [14]. The “growth inhibition (GI)” value in data set [25] and in data set [26] was “Active” each time. For the same molecule, the “fold change (FC)” value in data set [28] is on record as 5.6; in data set [29], 2.7; in data set [30] it was 13.9. In addition, the “inhibition (INH)” value in data set [31] was found to be 16%. Moreover, the inhibition of growth at 0.0001 µM in data set [32] lay in the range of 22 to 35%.

Regarding `C[C@@H](NC(=O)[C@@H](N)Cc1ccc(O)cc1)C(=O)NCC(=O)N(C)[C@@H](Cc1ccccc1)C(=O)NCCO`, the “growth inhibition (GI)” value in [1] and in [2] was “inactive” in each case.

Turning to `NC(=O)[C@H](Cc1ccccc1)NC(=O)[C@H](Cc1ccccc1)NC(=O)[C@@H]1CCCN1C(=O)[C@@H](N)Cc1ccc(O)cc1`, the “growth inhibition (GI)” value in data set [1] and in [2] was “inactive” throughout.

These data come from ChEMBL document CHEMBL4420060, “Combinatorial therapies for the treatment of neoplasias using the opioid growth factor receptor” (2013).
